Molecular target: T1, hAR (Homo sapiens, UniProt P10275)
T1 construct: expressed in transfected cells; host or cells: U2OS
T1 sequence (P10275 1-920): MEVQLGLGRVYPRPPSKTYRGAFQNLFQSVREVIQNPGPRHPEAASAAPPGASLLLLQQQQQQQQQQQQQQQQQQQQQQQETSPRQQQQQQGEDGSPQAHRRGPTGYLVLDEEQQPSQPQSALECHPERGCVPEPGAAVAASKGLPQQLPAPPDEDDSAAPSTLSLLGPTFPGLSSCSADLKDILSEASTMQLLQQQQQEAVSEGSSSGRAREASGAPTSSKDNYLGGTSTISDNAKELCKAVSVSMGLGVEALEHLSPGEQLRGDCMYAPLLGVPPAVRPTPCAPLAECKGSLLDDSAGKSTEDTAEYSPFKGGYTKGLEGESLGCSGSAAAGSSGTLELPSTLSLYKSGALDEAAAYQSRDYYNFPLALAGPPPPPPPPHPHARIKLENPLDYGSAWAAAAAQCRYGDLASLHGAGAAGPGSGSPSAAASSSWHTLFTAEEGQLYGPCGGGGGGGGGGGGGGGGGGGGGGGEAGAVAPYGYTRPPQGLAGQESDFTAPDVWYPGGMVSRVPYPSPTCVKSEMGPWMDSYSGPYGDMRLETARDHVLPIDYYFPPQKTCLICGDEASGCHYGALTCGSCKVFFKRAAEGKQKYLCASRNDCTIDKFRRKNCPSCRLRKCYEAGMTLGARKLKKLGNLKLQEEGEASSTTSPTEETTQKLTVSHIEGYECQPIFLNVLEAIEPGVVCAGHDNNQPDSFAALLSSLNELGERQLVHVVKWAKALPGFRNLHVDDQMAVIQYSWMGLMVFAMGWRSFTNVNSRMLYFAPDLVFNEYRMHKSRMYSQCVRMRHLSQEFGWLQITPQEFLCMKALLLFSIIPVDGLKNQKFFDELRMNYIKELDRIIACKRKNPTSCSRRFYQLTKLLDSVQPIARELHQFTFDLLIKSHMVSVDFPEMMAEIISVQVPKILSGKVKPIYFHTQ
Experiment: TAT3-luciferase reporter, U2OS cells cotransfected with hAR
Assay type: cell-based
Settings: 5 μM + 10 nM dihydrotestosterone, 24 hours

## O=C(/C=C/c1ccccc1)c1ccc(O)c(O)c1O [2′, 3′, 4′-THC, 2′, 3′, 4′-trihydroxychalcone]
  synergy with receptor agonist: no synergy

From patent US20190008797A1, “ESTROGEN RECEPTOR ALPHA COLIGANDS, AND METHODS OF USE THEREOF” (priority 2016, published 2019)
